Reference: PubChem BioAssay (NCI)
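1) Cells in 96-well plates. 2) Compound, 48 h, 5 concentrations. 3) Linear interpolation between surrounding doses. 4) Unreached endpoint = highest concentration. GI50 = concentration required for 50% inhibition of growth. TGI denotes the concentration required for complete inhibition of growth.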

Columns and labels:
Test in all cases: DTP human tumour cell line panel, 48 h
[1] = system: NCI-H522 lung
[2] = system: SK-MEL-28 melanoma
[3] = system: SK-OV-3 ovarian
[4] = system: EKVX NSCLC
[5] = system: ACHN renal
[6] = system: MALME-3M melanoma
[7] = system: HL-60(TB) leukemia
[8] = system: HCC-2998 colon
[9] = system: SF-295 CNS
[10] = system: MDA-N

| SMILES | TGI [1] [µM] | TGI [2] [µM] | TGI [3] [µM] | TGI [4] [µM] | TGI [5] [µM] | TGI [6] [µM] | TGI [7] [µM] | TGI [8] [µM] | TGI [9] [µM] | TGI [10] [µM] | GI50 [1] [µM] | GI50 [2] [µM] | GI50 [3] [µM] | GI50 [5] [µM] | GI50 [7] [µM] | GI50 [8] [µM] | GI50 [9] [µM] | GI50 [4] [µM] | GI50 [6] [µM] |
| --- | --- | --- | --- | --- | --- | --- | --- | --- | --- | --- | --- | --- | --- | --- | --- | --- | --- | --- | --- |
| O=C1N2CCC[C@H]2CS1(=O)=O | 18.5 | 41.2 | > 100 | 44.4 | 29.7 | 28.3 | 39.3 | 32.2 | > 100 |  |  |  |  |  |  |  |  |  |  |
| CC(c1ccccc1)n1cncc1C(=O)NN1CCN(C)CC1 (stereo not given) | > 10 | > 10 | > 10 | > 10 | > 10 | > 10 | > 10 |  | > 10 | > 10 |  |  |  |  |  |  |  |  |  |
| S=C1C(=Nc2ccccc2)N(c2ccccc2)/C(=N\c2cccc[n+]2Cc2ccccc2)N1c1ccccc1 | 31.2 | 37.3 | 42.6 | 53.8 | 45 | 28.2 |  | 27.2 | 27.4 | 25 |  |  |  |  |  |  |  |  |  |
| COc1cc2nc(N3CCC[C@H](NC4=CC(=O)c5ccccc5C4=O)C3)nc(N)c2cc1OC | 3.58 | 3.67 | 4.22 |  | 3.47 |  | 4.04 | 3.5 | 4.06 |  | 1.83 | 1.97 | 2.22 | 1.84 | 1.94 | 1.97 | 1.96 |  |  |
| CCOC(=O)c1c(N2CCCC2)[nH]c(=O)c(C(c2ccc(N(C)C)cc2)c2c(O)c(C(=O)OCC)c(N3CCCC3)[nH]c2=O)c1O | > 100 | > 100 | > 100 | > 100 | > 100 | > 100 |  | > 100 | > 100 | > 100 |  |  |  |  |  |  |  |  |  |
| O=c1[nH]n(CCc2ccccc2CCl)c2ccc([N+](=O)[O-])cc12 | > 100 | > 100 |  | 36.1 | > 100 | > 100 | > 100 | > 100 | > 100 |  |  |  |  |  |  |  |  |  |  |
| COc1c(C)c(C/C=C(\C)CCCC(C)CCCC(C)CCCC(C)C)c(OC)c2ccccc12 (stereo not given) | > 100 |  | > 100 | > 100 | > 100 |  |  | > 100 | > 100 | > 100 |  |  |  |  |  |  |  |  |  |
| COc1cc2c3c(n(C)c(=O)c2cc1OC)-c1cc2c(cc1/C3=C\CCCCCBr)OCO2 | 52.4 | 3.24 | 79.3 | > 100 | 41.7 |  | 20.3 |  | > 100 | > 100 |  |  |  |  |  |  |  |  |  |
| COc1ccc(OC)c2c(C)ccnc12 | 21.8 | > 100 | > 100 | > 100 | > 100 | > 74.3 |  | > 100 | 95.3 | > 100 |  |  |  |  |  |  |  |  |  |
| Cc1ccc(N=C/C=C(\Nc2ccc(C)cc2)c2ccc3ccccc3c2)cc1 | 11 | 11.2 | 9.71 |  | 7.77 | 14 | 2.02 |  | 3.9 |  |  |  |  |  |  |  |  |  |  |
| Cc1cc(N2CCCCC2)nc2ccc(Cc3ccc4nc(N5CCCCC5)cc(C)c4c3)cc12 | > 100 | > 100 | > 100 | > 100 | > 100 | > 100 |  | > 100 | > 100 | > 100 |  |  |  |  |  |  |  |  |  |
| O=C(O)Cn1c2c(c3c1-c1ccccc1C3=O)C(=O)CCC2 | > 100 | > 100 | > 100 | > 100 | > 100 | > 100 | > 100 | > 100 | > 100 |  | > 100 | > 100 | > 100 | > 100 | > 100 | > 100 | > 100 | > 100 | > 100 |
| N/N=C(/N)SCCCCCCCCCCS/C(N)=N/N | 65.6 | > 100 |  | > 100 | 67.4 | 49.4 | 39.4 | 59.6 | 60.9 |  |  |  |  |  |  |  |  |  |  |
| Cn1c2ccccc2n2c3ncccc3c(=O)cc12 | > 100 | > 100 | > 100 | > 100 | > 100 | > 100 |  |  | > 100 | > 100 |  |  |  |  |  |  |  |  |  |
| CC/C=C/c1cc2c(cc1O)CCC1C2CC[C@@]2(C)C1CC[C@@H]2O (stereo not given in full) | 14.1 | 24.1 | 16.7 | 14.3 | 17.9 | 15.8 |  | 33.2 | 1.48 | 0.637 |  |  |  |  |  |  |  |  |  |
| COC(=O)/C=C\n1nc(Br)c(=O)[nH]c1=O | > 100 | > 100 |  | > 100 | > 100 | > 100 | > 100 | > 100 |  | > 100 |  |  |  |  |  |  |  |  |  |
| CC(=O)CC(=O)N1CCSC1=S |  | > 10 | > 10 | > 10 | > 10 | > 10 | > 10 | > 10 | > 10 | > 10 |  |  |  |  |  |  |  |  |  |
| Cc1c(OCc2cccc3ccccc23)ccc2c(=O)cc(SCCN3CCOCC3)oc12 | > 100 | > 100 |  | > 100 | > 100 |  | > 100 | > 100 | > 100 |  |  |  |  |  |  |  |  |  |  |
| CCOC(=O)c1cc2c3c(c(C(C)=O)c(OC)c2[nH]1)N(C(=O)CC)CC3 |  | 44.7 | > 100 | 30.6 |  | 35.8 | 46.7 | 76.5 | 39.1 | 39.4 |  |  |  |  |  |  |  |  |  |
| O=Nc1c(-c2c(O)[nH]c3ccc(I)cc23)[nH]c2ccccc12 | > 26.1 | > 100 | > 35 | > 69.7 | > 21.4 | > 32.7 | 6.96 |  | > 71.7 | 47.2 |  |  |  |  |  |  |  |  |  |
| Cc1ccc(-n2nncc2[Si](C)(C)C)s1 | > 100 | > 100 | > 100 |  | > 100 | > 100 |  | > 100 | > 100 | > 100 |  |  |  |  |  |  |  |  |  |
| Oc1c(Cl)cc2cc1-c1cc(cc(Cl)c1O)CCc1c(cc(Cl)c(O)c1Cl)-c1cc(Cl)c(c(Cl)c1O)/C=C\2 |  | 19.3 | 18 |  | 29.7 |  | > 50 | 13.9 |  |  |  |  |  |  |  |  |  |  |  |
